Source: the NIST ThermoML archive (doi:10.1016/j.jct.2019.02.028)
“And” between values parts separate entries of the source, which are not always exact repeats. Equal values may be shown once. Numbers after ± are expanded uncertainties.

Experiment: xn = mol fraction of the nth substance listed
Conditions: Gas, Burnett expansion method

## C=C(F)C(F)(F)F [2,3,3,3-tetrafluoro-1-propene] + FCF
373.17 K, 4066.8 kPa, x2 = 0.259
  mass density: 238.02 ± 2.8 kg/m3
373.17 K, 4925.9 kPa, x2 = 0.874
  mass density: 143.64 ± 2.3 kg/m3
373.18 K, 619.83 kPa, x2 = 0.259
  mass density: 20.68 ± 0.16 kg/m3
373.18 K, 900.76 kPa, x2 = 0.449
  mass density: 26.92 ± 0.23 kg/m3
373.18 K, 906.18 kPa, x2 = 0.259
  mass density: 31.05 ± 0.22 kg/m3
373.18 K, 916.21 kPa, x2 = 0.874
  mass density: 18.76 ± 0.21 kg/m3
373.18 K, 1093.4 kPa, x2 = 0.119
  mass density: 41.92 ± 0.24 kg/m3
373.18 K, 1339 kPa, x2 = 0.874
  mass density: 28.18 ± 0.32 kg/m3
373.18 K, 1863.1 kPa, x2 = 0.449
  mass density: 60.74 ± 0.57 kg/m3
373.18 K, 2517.6 kPa, x2 = 0.259
  mass density: 105.24 ± 1.2 kg/m3
373.18 K, 2728.4 kPa, x2 = 0.874
  mass density: 63.56 ± 0.72 kg/m3
373.18 K, 3301.3 kPa, x2 = 0.259
  mass density: 158.31 ± 2.2 kg/m3
373.19 K, 755.34 kPa, x2 = 0.119
  mass density: 27.91 ± 0.14 kg/m3
373.19 K, 1931.1 kPa, x2 = 0.874
  mass density: 42.32 ± 0.49 kg/m3
373.19 K, 2828.2 kPa, x2 = 0.119
  mass density: 142.15 ± 1.3 kg/m3
373.2 K, 624.61 kPa, x2 = 0.874
  mass density: 12.49 ± 0.15 kg/m3
373.2 K, 3505 kPa, x2 = 0.119
  mass density: 213.51 ± 3.3 kg/m3
373.2 K, 4006.2 kPa, x2 = 0.119
  mass density: 320.47 ± 6.9 kg/m3
373.2 K, 4661.9 kPa, x2 = 0.259
  mass density: 359.6 ± 5 kg/m3
373.21 K, 1306.4 kPa, x2 = 0.259
  mass density: 46.64 ± 0.34 kg/m3
378.05 K, 2079.9 kPa, x2 = 0.698
  mass density: 53.99 ± 0.5 kg/m3
378.06 K, 1451.7 kPa, x2 = 0.698
  mass density: 35.94 ± 0.32 kg/m3
378.07 K, 5426.1 kPa, x2 = 0.449
  mass density: 308.92 ± 3.2 kg/m3
378.08 K, 622.36 kPa, x2 = 0.449
  mass density: 17.91 ± 0.16 kg/m3
378.08 K, 2782.2 kPa, x2 = 0.874
  mass density: 63.55 ± 0.72 kg/m3
378.08 K, 2911.8 kPa, x2 = 0.698
  mass density: 81.09 ± 0.78 kg/m3
378.08 K, 3552.8 kPa, x2 = 0.449
  mass density: 136.97 ± 1.5 kg/m3
378.08 K, 4525.2 kPa, x2 = 0.449
  mass density: 205.67 ± 2.4 kg/m3
378.09 K, 1328.7 kPa, x2 = 0.449
  mass density: 40.42 ± 0.36 kg/m3
378.09 K, 1878.5 kPa, x2 = 0.259
  mass density: 70.04 ± 0.61 kg/m3
378.09 K, 2649.2 kPa, x2 = 0.449
  mass density: 91.19 ± 0.93 kg/m3
378.09 K, 3936.7 kPa, x2 = 0.698
  mass density: 121.78 ± 1.5 kg/m3
378.09 K, 4937.5 kPa, x2 = 0.259
  mass density: 358.03 ± 3.3 kg/m3
378.09 K, 5074.6 kPa, x2 = 0.698
  mass density: 182.93 ± 2.3 kg/m3
378.1 K, 678.04 kPa, x2 = 0.698
  mass density: 15.93 ± 0.14 kg/m3
378.1 K, 920.5 kPa, x2 = 0.259
  mass density: 31.05 ± 0.22 kg/m3
378.1 K, 997.84 kPa, x2 = 0.698
  mass density: 23.93 ± 0.21 kg/m3
378.1 K, 1582.4 kPa, x2 = 0.119
  mass density: 62.96 ± 0.36 kg/m3
378.1 K, 1897.6 kPa, x2 = 0.449
  mass density: 60.71 ± 0.56 kg/m3
378.1 K, 2190.4 kPa, x2 = 0.119
  mass density: 94.57 ± 0.59 kg/m3
378.1 K, 3832.4 kPa, x2 = 0.874
  mass density: 95.49 ± 1.1 kg/m3
378.1 K, 4232.9 kPa, x2 = 0.259
  mass density: 237.67 ± 2.6 kg/m3
378.1 K, 5071.5 kPa, x2 = 0.874
  mass density: 143.48 ± 2.2 kg/m3
378.11 K, 629.16 kPa, x2 = 0.259
  mass density: 20.67 ± 0.16 kg/m3
378.11 K, 767.1 kPa, x2 = 0.119
  mass density: 27.9 ± 0.14 kg/m3
378.11 K, 914.69 kPa, x2 = 0.449
  mass density: 26.91 ± 0.23 kg/m3
378.11 K, 1360.2 kPa, x2 = 0.874
  mass density: 28.17 ± 0.32 kg/m3
378.11 K, 1964.7 kPa, x2 = 0.874
  mass density: 42.31 ± 0.49 kg/m3
378.11 K, 2577.3 kPa, x2 = 0.259
  mass density: 105.22 ± 1.2 kg/m3
378.11 K, 2909.1 kPa, x2 = 0.119
  mass density: 142.06 ± 1.3 kg/m3
378.12 K, 633.28 kPa, x2 = 0.874
  mass density: 12.49 ± 0.15 kg/m3
378.12 K, 929.88 kPa, x2 = 0.874
  mass density: 18.75 ± 0.21 kg/m3
378.12 K, 1329.1 kPa, x2 = 0.259
  mass density: 46.64 ± 0.34 kg/m3
378.12 K, 3399.6 kPa, x2 = 0.259
  mass density: 158.16 ± 2.1 kg/m3
378.12 K, 3642.1 kPa, x2 = 0.119
  mass density: 213.38 ± 3 kg/m3
378.12 K, 4237.1 kPa, x2 = 0.119
  mass density: 320.38 ± 5.9 kg/m3
378.13 K, 1112 kPa, x2 = 0.119
  mass density: 41.91 ± 0.24 kg/m3
382.98 K, 1475.1 kPa, x2 = 0.698
  mass density: 35.93 ± 0.32 kg/m3
382.98 K, 2117.2 kPa, x2 = 0.698
  mass density: 53.97 ± 0.49 kg/m3
382.99 K, 631.25 kPa, x2 = 0.449
  mass density: 17.91 ± 0.16 kg/m3
383 K, 1350.2 kPa, x2 = 0.449
  mass density: 40.4 ± 0.35 kg/m3
383 K, 2705.6 kPa, x2 = 0.449
  mass density: 91.15 ± 0.92 kg/m3
383 K, 2835.7 kPa, x2 = 0.874
  mass density: 63.53 ± 0.72 kg/m3
383 K, 3918.9 kPa, x2 = 0.874
  mass density: 95.42 ± 1.1 kg/m3
383 K, 4682.2 kPa, x2 = 0.449
  mass density: 205.63 ± 2.3 kg/m3
383 K, 5686.5 kPa, x2 = 0.449
  mass density: 308.85 ± 3.3 kg/m3
383.01 K, 928.35 kPa, x2 = 0.449
  mass density: 26.9 ± 0.23 kg/m3
383.01 K, 1476 kPa, x2 = 0.698
  mass density: 35.93 ± 0.32 kg/m3
383.01 K, 2118 kPa, x2 = 0.698
  mass density: 53.97 ± 0.49 kg/m3
383.01 K, 2705.6 kPa, x2 = 0.449
  mass density: 91.15 ± 0.92 kg/m3
383.01 K, 2972.2 kPa, x2 = 0.698
  mass density: 81.06 ± 0.77 kg/m3
383.01 K, 3646.5 kPa, x2 = 0.449
  mass density: 136.9 ± 1.5 kg/m3
383.01 K, 4036.2 kPa, x2 = 0.698
  mass density: 121.75 ± 1.5 kg/m3
383.01 K, 4682.4 kPa, x2 = 0.449
  mass density: 205.63 ± 2.3 kg/m3
383.01 K, 5245.7 kPa, x2 = 0.698
  mass density: 182.87 ± 2.2 kg/m3
383.02 K, 928.34 kPa, x2 = 0.449
  mass density: 26.9 ± 0.23 kg/m3
383.02 K, 1012.8 kPa, x2 = 0.698
  mass density: 23.92 ± 0.21 kg/m3
383.02 K, 1381.5 kPa, x2 = 0.874
  mass density: 28.16 ± 0.32 kg/m3
383.02 K, 1914.9 kPa, x2 = 0.259
  mass density: 70.04 ± 0.65 kg/m3
383.02 K, 1937.6 kPa, x2 = 0.449
  mass density: 60.69 ± 0.56 kg/m3
383.02 K, 1937.7 kPa, x2 = 0.449
  mass density: 60.69 ± 0.56 kg/m3
383.02 K, 2238 kPa, x2 = 0.119
  mass density: 94.52 ± 0.66 kg/m3
383.02 K, 2635.6 kPa, x2 = 0.259
  mass density: 105.19 ± 1.1 kg/m3
383.02 K, 2635.8 kPa, x2 = 0.259
  mass density: 105.19 ± 1.1 kg/m3
383.02 K, 2972.4 kPa, x2 = 0.698
  mass density: 81.06 ± 0.77 kg/m3
383.02 K, 3646.6 kPa, x2 = 0.449
  mass density: 136.9 ± 1.5 kg/m3
383.02 K, 3919.7 kPa, x2 = 0.874
  mass density: 95.42 ± 1.1 kg/m3
383.02 K, 4035.8 kPa, x2 = 0.698
  mass density: 121.75 ± 1.5 kg/m3
383.02 K, 4396.6 kPa, x2 = 0.259
  mass density: 237.32 ± 2.4 kg/m3
383.02 K, 5211.2 kPa, x2 = 0.259
  mass density: 356.45 ± 6.4 kg/m3 and 356.44 ± 6.4 kg/m3
383.02 K, 5215.7 kPa, x2 = 0.874
  mass density: 143.31 ± 2.2 kg/m3
383.02 K, 5215.8 kPa, x2 = 0.874
  mass density: 143.31 ± 2.2 kg/m3
383.02 K, 5245.8 kPa, x2 = 0.698
  mass density: 182.87 ± 2.2 kg/m3
383.03 K, 934.81 kPa, x2 = 0.259
  mass density: 31.04 ± 0.22 kg/m3
383.03 K, 1350.5 kPa, x2 = 0.449
  mass density: 40.4 ± 0.35 kg/m3
383.03 K, 1351.5 kPa, x2 = 0.259
  mass density: 46.63 ± 0.34 kg/m3
383.03 K, 1381.4 kPa, x2 = 0.874
  mass density: 28.16 ± 0.32 kg/m3
383.03 K, 1611.8 kPa, x2 = 0.119
  mass density: 62.93 ± 0.39 kg/m3
383.03 K, 1611.9 kPa, x2 = 0.119
  mass density: 62.93 ± 0.39 kg/m3
383.03 K, 1915 kPa, x2 = 0.259
  mass density: 70.04 ± 0.65 kg/m3
383.03 K, 1998.1 kPa, x2 = 0.874
  mass density: 42.29 ± 0.48 kg/m3
383.03 K, 2238.3 kPa, x2 = 0.119
  mass density: 94.52 ± 0.66 kg/m3
383.03 K, 2836.1 kPa, x2 = 0.874
  mass density: 63.53 ± 0.72 kg/m3
383.03 K, 2989.1 kPa, x2 = 0.119
  mass density: 141.97 ± 1.2 kg/m3
383.03 K, 3496.5 kPa, x2 = 0.259
  mass density: 158 ± 2.1 kg/m3
383.03 K, 3777.6 kPa, x2 = 0.119
  mass density: 213.24 ± 2.7 kg/m3
383.03 K, 4397.4 kPa, x2 = 0.259
  mass density: 237.31 ± 2.4 kg/m3
383.03 K, 4464.7 kPa, x2 = 0.119
  mass density: 320.28 ± 5.2 kg/m3
383.03 K, 4465 kPa, x2 = 0.119
  mass density: 320.28 ± 5.2 kg/m3
383.04 K, 638.24 kPa, x2 = 0.259
  mass density: 20.67 ± 0.16 kg/m3
383.04 K, 642.12 kPa, x2 = 0.874
  mass density: 12.48 ± 0.15 kg/m3
383.04 K, 688.17 kPa, x2 = 0.698
  mass density: 15.93 ± 0.14 kg/m3
383.04 K, 778.8 kPa, x2 = 0.119
  mass density: 27.9 ± 0.14 kg/m3
383.04 K, 943.49 kPa, x2 = 0.874
  mass density: 18.75 ± 0.21 kg/m3
383.04 K, 1130.2 kPa, x2 = 0.119
  mass density: 41.9 ± 0.25 kg/m3
383.04 K, 1998.1 kPa, x2 = 0.874
  mass density: 42.29 ± 0.48 kg/m3
383.04 K, 2989.2 kPa, x2 = 0.119
  mass density: 141.97 ± 1.2 kg/m3
383.04 K, 3777.7 kPa, x2 = 0.119
  mass density: 213.24 ± 2.7 kg/m3
383.05 K, 943.52 kPa, x2 = 0.874
  mass density: 18.75 ± 0.21 kg/m3
383.05 K, 3496.8 kPa, x2 = 0.259
  mass density: 158 ± 2.1 kg/m3
383.06 K, 935.34 kPa, x2 = 0.259
  mass density: 31.04 ± 0.22 kg/m3
383.06 K, 1130.4 kPa, x2 = 0.119
  mass density: 41.9 ± 0.25 kg/m3
